PubChem BioAssay (NCI)
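Results reflect a 48-hour exposure of cells in 96-well plates to compound at five concentrations. GI50 = concentration required for 50% inhibition of growth. TGI is the concentration that stops growth completely.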

Assays:
Assay in all cases: DTP human tumour cell line panel, 48 h
786-0 renal = test system: 786-0 renal
A498 renal = test system: A498 renal
A549 NSCLC = test system: A549 NSCLC
ACHN renal = test system: ACHN renal
BT-549 breast = test system: BT-549 breast
CAKI-1 renal = test system: CAKI-1 renal
CCRF-CEM leukemia = test system: CCRF-CEM leukemia
COLO 205 colon = test system: COLO 205 colon
DU-145 prostate = test system: DU-145 prostate
EKVX NSCLC = test system: EKVX NSCLC
HCC-2998 colon = test system: HCC-2998 colon
HCT-116 colon = test system: HCT-116 colon
HCT-15 colon = test system: HCT-15 colon
HL-60(TB) leukemia = test system: HL-60(TB) leukemia
HOP-62 NSCLC = test system: HOP-62 NSCLC
HOP-92 NSCLC = test system: HOP-92 NSCLC
HS 578T breast = test system: HS 578T breast
HT29 colon = test system: HT29 colon
IGROV1 ovarian = test system: IGROV1 ovarian
K-562 leukemia = test system: K-562 leukemia
KM12 colon = test system: KM12 colon
LOX IMVI melanoma = test system: LOX IMVI melanoma
M14 melanoma = test system: M14 melanoma
MALME-3M melanoma = test system: MALME-3M melanoma
MCF7 breast = test system: MCF7 breast
MDA-MB-231 breast = test system: MDA-MB-231 breast
MDA-MB-435 = test system: MDA-MB-435
MOLT-4 leukemia = test system: MOLT-4 leukemia
NCI-H226 lung = test system: NCI-H226 lung
NCI-H23 lung = test system: NCI-H23 lung
NCI-H460 lung = test system: NCI-H460 lung
NCI-H522 lung = test system: NCI-H522 lung
NCI/ADR-RES ovarian = test system: NCI/ADR-RES ovarian
OVCAR-3 ovarian = test system: OVCAR-3 ovarian
OVCAR-4 ovarian = test system: OVCAR-4 ovarian
OVCAR-5 ovarian = test system: OVCAR-5 ovarian
OVCAR-8 ovarian = test system: OVCAR-8 ovarian
PC-3 prostate = test system: PC-3 prostate
RPMI-8226 leukemia = test system: RPMI-8226 leukemia
RXF 393 renal = test system: RXF 393 renal
SF-268 CNS = test system: SF-268 CNS
SF-295 CNS = test system: SF-295 CNS
SF-539 CNS = test system: SF-539 CNS
SK-MEL-2 melanoma = test system: SK-MEL-2 melanoma
SK-MEL-28 melanoma = test system: SK-MEL-28 melanoma
SK-MEL-5 melanoma = test system: SK-MEL-5 melanoma
SK-OV-3 ovarian = test system: SK-OV-3 ovarian
SN12C renal = test system: SN12C renal
SNB-19 CNS = test system: SNB-19 CNS
SNB-75 CNS = test system: SNB-75 CNS
SR leukemia = test system: SR leukemia
SW-620 colon = test system: SW-620 colon
TK-10 renal = test system: TK-10 renal
U251 CNS = test system: U251 CNS
UACC-257 melanoma = test system: UACC-257 melanoma
UACC-62 melanoma = test system: UACC-62 melanoma
UO-31 renal = test system: UO-31 renal

`O=C(c1ccccc1)C(CN1CCCCC1)c1ccccc1` (centres undefined) was tested. Which GI50 (786-0 renal) did it give?
Its GI50 is 1.91 µM.

What about the TGI (786-0 renal) of the same compound?
The TGI was 3.45 µM.

And the GI50 (A498 renal)?
The GI50 was 9.33 µM.

What about the TGI (A498 renal) of the same compound?
Its TGI is 22 µM.

And the GI50 (A549 NSCLC)?
Its GI50 is 16.1 µM.

And the TGI (A549 NSCLC)?
Its TGI is 43.8 µM.

And the GI50 (ACHN renal)?
Its GI50 is 0.941 µM.

What about the TGI (ACHN renal) of the same compound?
The TGI was 2.13 µM.

What about the GI50 (BT-549 breast) of the same compound?
Its GI50 is 1.6 µM.

And the TGI (BT-549 breast)?
The TGI was 3.19 µM.

What about the GI50 (CAKI-1 renal) of the same compound?
Its GI50 is 1.08 µM.

And the TGI (CAKI-1 renal)?
Its TGI is 2.45 µM.

What about the GI50 (CCRF-CEM leukemia) of the same compound?
Its GI50 is 0.301 µM.

What about the TGI (CCRF-CEM leukemia) of the same compound?
The TGI was 2.34 µM.

And the GI50 (COLO 205 colon)?
The GI50 was 1.57 µM.

And the TGI (COLO 205 colon)?
Its TGI is 3.14 µM.

What about the GI50 (DU-145 prostate) of the same compound?
Its GI50 is 0.681 µM.

And the TGI (DU-145 prostate)?
The TGI was 2.05 µM.

And the GI50 (EKVX NSCLC)?
The GI50 was 3.5 µM.

What about the TGI (EKVX NSCLC) of the same compound?
Its TGI is 16.7 µM.

And the GI50 (HCC-2998 colon)?
Its GI50 is 3.97 µM.

What about the TGI (HCC-2998 colon) of the same compound?
Its TGI is 12.3 µM.

And the GI50 (HCT-116 colon)?
The GI50 was 1.13 µM.

What about the TGI (HCT-116 colon) of the same compound?
Its TGI is 2.46 µM.

What about the GI50 (HCT-15 colon) of the same compound?
Its GI50 is 0.599 µM.

And the TGI (HCT-15 colon)?
Its TGI is 2.06 µM.

What about the GI50 (HL-60(TB) leukemia) of the same compound?
Its GI50 is 1.42 µM.

And the TGI (HL-60(TB) leukemia)?
The TGI was 3.86 µM.

And the GI50 (HOP-62 NSCLC)?
Its GI50 is 2.03 µM.

And the TGI (HOP-62 NSCLC)?
The TGI was 5.9 µM.

What about the GI50 (HOP-92 NSCLC) of the same compound?
The GI50 was 1.16 µM.

What about the TGI (HOP-92 NSCLC) of the same compound?
The TGI was 3.88 µM.

What about the GI50 (HS 578T breast) of the same compound?
The GI50 was 4.49 µM.

What about the TGI (HS 578T breast) of the same compound?
The TGI was 33.2 µM.

And the GI50 (HT29 colon)?
The GI50 was 0.892 µM.

What about the TGI (HT29 colon) of the same compound?
Its TGI is 5.67 µM.

What about the GI50 (IGROV1 ovarian) of the same compound?
The GI50 was 1.5 µM.

And the TGI (IGROV1 ovarian)?
The TGI was 3.34 µM.

And the GI50 (K-562 leukemia)?
The GI50 was 0.712 µM.

And the TGI (K-562 leukemia)?
Its TGI is 14.2 µM.

What about the GI50 (KM12 colon) of the same compound?
The GI50 was 3.75 µM.

And the TGI (KM12 colon)?
The TGI was 13.8 µM.

And the GI50 (LOX IMVI melanoma)?
Its GI50 is 0.478 µM.

And the TGI (LOX IMVI melanoma)?
Its TGI is 1.7 µM.

What about the GI50 (M14 melanoma) of the same compound?
Its GI50 is 0.865 µM.

And the TGI (M14 melanoma)?
Its TGI is 2.63 µM.

And the GI50 (MALME-3M melanoma)?
The GI50 was 1.44 µM.

What about the TGI (MALME-3M melanoma) of the same compound?
The TGI was 3.35 µM.

What about the GI50 (MCF7 breast) of the same compound?
The GI50 was 2.81 µM.

What about the TGI (MCF7 breast) of the same compound?
The TGI was 37.8 µM.

What about the GI50 (MDA-MB-231 breast) of the same compound?
The GI50 was 1.82 µM.

And the TGI (MDA-MB-231 breast)?
The TGI was 4.37 µM.

And the GI50 (MDA-MB-435)?
Its GI50 is 1.67 µM.

And the TGI (MDA-MB-435)?
Its TGI is 4.19 µM.

And the GI50 (MOLT-4 leukemia)?
Its GI50 is 1.96 µM.

What about the TGI (MOLT-4 leukemia) of the same compound?
Its TGI is 5.09 µM.

What about the GI50 (NCI-H226 lung) of the same compound?
The GI50 was 3.67 µM.

And the TGI (NCI-H226 lung)?
Its TGI is 14.8 µM.

And the GI50 (NCI-H23 lung)?
Its GI50 is 1.65 µM.

And the TGI (NCI-H23 lung)?
The TGI was 3.78 µM.

And the GI50 (NCI-H460 lung)?
The GI50 was 10.2 µM.

What about the TGI (NCI-H460 lung) of the same compound?
Its TGI is 26.1 µM.

What about the GI50 (NCI-H522 lung) of the same compound?
Its GI50 is 0.316 µM.

What about the TGI (NCI-H522 lung) of the same compound?
The TGI was 2.53 µM.

And the GI50 (NCI/ADR-RES ovarian)?
The GI50 was 1.27 µM.

What about the TGI (NCI/ADR-RES ovarian) of the same compound?
The TGI was 2.9 µM.

What about the GI50 (OVCAR-3 ovarian) of the same compound?
Its GI50 is 1.78 µM.

And the TGI (OVCAR-3 ovarian)?
Its TGI is 3.25 µM.

And the GI50 (OVCAR-4 ovarian)?
The GI50 was 1.54 µM.

And the TGI (OVCAR-4 ovarian)?
Its TGI is 4.52 µM.

And the GI50 (OVCAR-5 ovarian)?
Its GI50 is 2.67 µM.

What about the TGI (OVCAR-5 ovarian) of the same compound?
The TGI was 5.43 µM.

And the GI50 (OVCAR-8 ovarian)?
The GI50 was 1.7 µM.

And the TGI (OVCAR-8 ovarian)?
Its TGI is 4.36 µM.

And the GI50 (PC-3 prostate)?
The GI50 was 1.69 µM.

What about the TGI (PC-3 prostate) of the same compound?
The TGI was 3.83 µM.

What about the GI50 (RPMI-8226 leukemia) of the same compound?
The GI50 was 0.539 µM.

What about the TGI (RPMI-8226 leukemia) of the same compound?
Its TGI is 2.88 µM.

What about the GI50 (RXF 393 renal) of the same compound?
Its GI50 is 1.42 µM.

What about the TGI (RXF 393 renal) of the same compound?
The TGI was 2.74 µM.

And the GI50 (SF-268 CNS)?
Its GI50 is 3.98 µM.

What about the TGI (SF-268 CNS) of the same compound?
The TGI was 16.1 µM.

What about the GI50 (SF-295 CNS) of the same compound?
The GI50 was 4.85 µM.

What about the TGI (SF-295 CNS) of the same compound?
Its TGI is 17.5 µM.

And the GI50 (SF-539 CNS)?
The GI50 was 1.96 µM.

What about the TGI (SF-539 CNS) of the same compound?
The TGI was 3.94 µM.

And the GI50 (SK-MEL-2 melanoma)?
Its GI50 is 2.85 µM.

What about the TGI (SK-MEL-2 melanoma) of the same compound?
The TGI was 8.73 µM.

And the GI50 (SK-MEL-28 melanoma)?
Its GI50 is 3.25 µM.

What about the TGI (SK-MEL-28 melanoma) of the same compound?
The TGI was 11.4 µM.

What about the GI50 (SK-MEL-5 melanoma) of the same compound?
Its GI50 is 2.38 µM.

What about the TGI (SK-MEL-5 melanoma) of the same compound?
Its TGI is 6.74 µM.

What about the GI50 (SK-OV-3 ovarian) of the same compound?
The GI50 was 7.27 µM.

What about the TGI (SK-OV-3 ovarian) of the same compound?
The TGI was 24.8 µM.

What about the GI50 (SN12C renal) of the same compound?
Its GI50 is 1.79 µM.

And the TGI (SN12C renal)?
The TGI was 3.8 µM.

What about the GI50 (SNB-19 CNS) of the same compound?
The GI50 was 9.6 µM.

And the TGI (SNB-19 CNS)?
Its TGI is 21.5 µM.

What about the GI50 (SNB-75 CNS) of the same compound?
The GI50 was 3.46 µM.

And the TGI (SNB-75 CNS)?
The TGI was 15.4 µM.

And the GI50 (SR leukemia)?
Its GI50 is 0.539 µM.

And the TGI (SR leukemia)?
The TGI was 4.26 µM.

And the GI50 (SW-620 colon)?
The GI50 was 0.583 µM.

What about the TGI (SW-620 colon) of the same compound?
The TGI was 2.17 µM.

And the GI50 (TK-10 renal)?
The GI50 was 2.92 µM.

And the TGI (TK-10 renal)?
Its TGI is 10.2 µM.

And the GI50 (U251 CNS)?
The GI50 was 1.48 µM.

What about the TGI (U251 CNS) of the same compound?
Its TGI is 3.24 µM.

And the GI50 (UACC-257 melanoma)?
Its GI50 is 1.73 µM.

What about the TGI (UACC-257 melanoma) of the same compound?
Its TGI is 4.06 µM.

And the GI50 (UACC-62 melanoma)?
Its GI50 is 1.98 µM.

And the TGI (UACC-62 melanoma)?
The TGI was 4.8 µM.

What about the GI50 (UO-31 renal) of the same compound?
The GI50 was 1.58 µM.

And the TGI (UO-31 renal)?
Its TGI is 3.07 µM.
